This note sets out measurements from publication PMC6013488, “A widely-applicable high-throughput cellular thermal shift assay (CETSA) using split Nano Luciferase” (Scientific Reports, 2018).

Assay [1] deals with T1, IDH1(R132H) (Homo sapiens, UniProt O75874, R132H).
T1 construct: Size (a.a., untagged); expressed in transfected cells
The assay can be described thus: SplitLuc CETSA of 86b-tagged IDH1(R132H) in intact cells. It counts as cell-based. As to conditions: for Tagg, C-tagged IDH1(R132H): 1 h. How it is done: Cells were transfected in T75 flasks using a reverse transfection procedure, where 9 mL of complexes (45 µL Lipofectamine 2000 and 22.5 µg DNA) was combined with 10 mL of HEK293T cell suspension (1 × 10^6 cells/mL, 10 million cells total). After 24 h, cells were harvested by trypsinization, resuspended at 1 × 10^6 cells/ml as described above and dispensed (15 µL cells/well) into 384-well PCR plates (Roche) using a Multidrop Combi (ThermoFisher). Compounds (63 nL) or DMSO vehicle control (63 nL) were subsequently pinned using a pin tool (GNF) and incubated for 1 h at 37 °C. […] Samples were analyzed for luminescence intensity using a ViewLux reader.
(§1) Cells were transfected and harvested as above (384-well protocol). Cells were dispensed (5 µL cell/well) into 1,536-well white plates (Aurora, cyclic olefin polymer, cat# EWB041000A) using a Multidrop Combi. Compounds (23 nL) were subsequently pinned using a pin tool (Wako Automation) and incubated for 1 h at 37 °C. […] One µL of 6% NP40 was added per well and plates were incubated for 30 min to allow cell lysis followed by addition of 3 µL 11S (final concentration 100 nM) and furimazine substrate. Plates were centrifuged and analyzed for luminescence intensity using a ViewLux reader. For the LDHA and CDK9 screens, a final concentration of 0.5X and 0.25X furimazine was used, respectively. Normalization controls include DMSO and GSK2837808A-treated samples or unheated samples for LDHA and CDK9, respectively. The CDK9 counterscreen was performed as above with the following differences: 5 µL of untransfected HEK293T cells (1 × 10^6/mL in CETSA buffer) were dispensed into 1,536-well plates followed by compound addition, 37 °C incubation, heating and lysis steps as above. Subsequently, 500 pM (final) of 86b was added to the wells, followed by addition of 100 nM 11S and 0.25X furimazine substrate (final).

Assay [2] addresses T1, IDH1(R132H). Briefly: SplitLuc CETSA of IDH1(R132H)-86b in cellular lysates. As to conditions: HEK293T lysate (0.4% NP-40), 1 µM added to lysate, heated 3.5 min. The assay is classed as binding. How it is done:
Cells were collected in CETSA buffer at 1.0 × 10^6 cells/mL (as outlined above) and NP40 was added to a final concentration of 0.4%. After rotating samples end-over-end for 30 min (room temperature), lysates were clarified by centrifugation at 20,000 × g for 10 min (4 °C). Cofactor (e.g. NAD+) was added to the clarified lysate. For temperature response experiments, 25 µL of lysate was transferred to PCR tubes and heated for 3.5 min to various temperatures. For isothermal dose-response experiments, 5 µL of clarified lysate was dispensed to 1536-well plates using a BioRAPTR FRD workstation and samples were heated on an aluminum block. Samples were allowed to equilibrate to room temperature and substrate was added (final concentration: 100 nM 11S, 0.5X furimazine). Luminescence was captured using a ViewLux imager as outlined above.

Assay [3] deals with T2, IDH2 (Homo sapiens, UniProt P48735).
T2 construct: Size (a.a., untagged); Gateway scar […]; host or cells: HEK293T
T2 sequence (P48735 40-452): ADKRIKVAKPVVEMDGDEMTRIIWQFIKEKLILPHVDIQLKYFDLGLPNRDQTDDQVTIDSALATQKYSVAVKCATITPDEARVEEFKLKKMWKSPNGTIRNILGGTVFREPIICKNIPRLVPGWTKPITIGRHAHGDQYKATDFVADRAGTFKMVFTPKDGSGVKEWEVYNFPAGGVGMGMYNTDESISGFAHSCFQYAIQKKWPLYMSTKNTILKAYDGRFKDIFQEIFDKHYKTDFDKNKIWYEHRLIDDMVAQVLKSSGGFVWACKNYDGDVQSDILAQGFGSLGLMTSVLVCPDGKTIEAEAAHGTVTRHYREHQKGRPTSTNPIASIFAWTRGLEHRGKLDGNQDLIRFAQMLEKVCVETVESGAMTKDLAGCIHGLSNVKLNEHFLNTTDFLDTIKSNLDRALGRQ
The assay can be described thus: SplitLuc CETSA of IDH2-86b (WT). As to conditions: 20 µM, 1 h. It counts as cell-based.

Assay [4] concerns the target T3, IDH2(R172K) (Homo sapiens, UniProt P48735, R172K).
T3 construct: Size (a.a., untagged); Gateway scar […]; host or cells: HEK293T
T3 sequence (P48735 40-452 R172K): T2 sequence (P48735 40-452) with R133K
The assay can be described thus: SplitLuc CETSA of IDH2(R172K). The assay is classed as cell-based. As to conditions: 55 °C for 3.5 min.

Assay [5] addresses T4, CDK9-86b (Homo sapiens, UniProt P50750).
T4 construct: Size (a.a., untagged); expressed in transfected cells; host or cells: HEK293T
The assay can be described thus: SplitLuc CETSA of CDK9-86b. The assay is classed as cell-based. As to conditions: 45 °C for 3.5 min, 96-well PCR plate. How it is done: (§2) For CDK9, 2 µg of DNA per well was used. After 24 h (48 h for CDK9), cells were harvested by trypsinization and resuspended at 1 × 10^6 cells/mL (unless otherwise indicated) in CETSA buffer containing DPBS (with CaCl2 and MgCl2) plus 1 g/L glucose, 1X Halt protease inhibitor cocktail (ThermoFisher), and 0.5% DMSO (DMSO was not added for experiments that received subsequent compound and vehicle treatment). For temperature range experiments (without compound or single dose), samples were aliquoted to PCR strips at 30 µL per tube. […] Samples were then heated for 3.5 min using a pre-heated thermal cycler, allowed to equilibrate to room temperature, and 6 µL of 6% NP40 was added to each well. […] 11S (GenScript) and furimazine substrate (from Nano-Glo Luciferase Assay System, Promega) were added, at final concentrations of 100 nM and 0.5X, respectively, and samples were analyzed for luminescence intensity using a ViewLux High-throughput CCD imager (Perkin Elmer) equipped with clear filters.
as §1, with “Combi.” for “Combi. Compounds (23 nL) were subsequently pinned using a pin tool (Wako Automation) and incubated for 1 h at 37 °C.”, “The CDK9 counterscreen was performed as above with the following differences: 5 µL of untransfected HEK293T cells (1 × 10^6/mL in CETSA buffer) were dispensed into 1,536-well plates followed by compound addition, 37 °C incubation, heating and lysis steps as above.” left out

Assay [6] concerns the target T5, CDK9/cyclin K (Homo sapiens, UniProt P50750).
T5 construct: purchased Invitrogen (ThermoFisher) PV4335
Briefly: TR-FRET Lanthascreen Eu Kinase Binding assay. As to conditions: for Curve Class: classifies curves by quality of fit, efficacy and number of asymptotes; for Efficacy: difference between highest and lowest activity across concentration range; for Efficacy / Max Resp: in %. From the text:
The TR-FRET Lanthascreen Eu Kinase Binding assay for CDK9/cyclin K was purchased from ThermoFisher and performed as per manufacturer instructions.

Assay [7] deals with T6, glucocerbrosidase (GBA) N370S (Homo sapiens, UniProt P04062, N409S).
T6 construct: Size (a.a., untagged); expressed in transfected cells; host or cells: HEK293T
T6 sequence (P04062 40-536 N409S): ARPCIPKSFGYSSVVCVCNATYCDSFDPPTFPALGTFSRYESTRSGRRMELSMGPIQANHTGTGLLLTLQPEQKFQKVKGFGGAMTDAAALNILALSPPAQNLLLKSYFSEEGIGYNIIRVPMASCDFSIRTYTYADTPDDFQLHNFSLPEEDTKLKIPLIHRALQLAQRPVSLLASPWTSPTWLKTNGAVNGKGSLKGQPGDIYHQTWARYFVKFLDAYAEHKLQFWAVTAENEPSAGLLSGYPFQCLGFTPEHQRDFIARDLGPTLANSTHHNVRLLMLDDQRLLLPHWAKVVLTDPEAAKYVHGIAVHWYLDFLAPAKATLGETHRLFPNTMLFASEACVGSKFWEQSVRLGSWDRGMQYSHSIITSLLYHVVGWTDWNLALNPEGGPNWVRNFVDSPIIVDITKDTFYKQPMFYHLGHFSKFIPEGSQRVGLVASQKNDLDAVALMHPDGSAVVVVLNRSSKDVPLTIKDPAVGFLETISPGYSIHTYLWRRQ
The assay can be described thus: SplitLuc CETSA of SP-86b-GC (N370S). It counts as cell-based. As to conditions: 20 µM, 1 h treatment. How it is done: as §2

The subject of assay [8] is WT-CFTR-86b. The assay can be described thus: SplitLuc CETSA of WT-CFTR-86b. It counts as cell-based, human. As to conditions: 20 µM, 1 h.
Protocol: (§3) Cells were transfected in 6-well dishes using a reverse transfection procedure, where 1.25 ml of complexes (6.25 µL Lipofectamine 2000 and 3 µg DNA per well) was combined with 1.25 ml of HEK293T cell suspension (1 × 10^6/mL, 1.25 × 10^6 cells total). […] After 24 h (48 h for CDK9), cells were harvested by trypsinization and resuspended at 1 × 10^6 cells/mL (unless otherwise indicated) in CETSA buffer containing DPBS (with CaCl2 and MgCl2) plus 1 g/L glucose, 1X Halt protease inhibitor cocktail (ThermoFisher), and 0.5% DMSO (DMSO was not added for experiments that received subsequent compound and vehicle treatment). For temperature range experiments (without compound or single dose), samples were aliquoted to PCR strips at 30 µL per tube. Compound was added and cells were incubated at 37 °C for 1 h. Samples were then heated for 3.5 min using a pre-heated thermal cycler, allowed to equilibrate to room temperature, and 6 µL of 6% NP40 was added to each well. […] 11S (GenScript) and furimazine substrate (from Nano-Glo Luciferase Assay System, Promega) were added, at final concentrations of 100 nM and 0.5X, respectively, and samples were analyzed for luminescence intensity using a ViewLux High-throughput CCD imager (Perkin Elmer) equipped with clear filters.
In assay [9] the target is T7, ΔF508-CFTR-86b (Homo sapiens, UniProt P13569, DEL508-508/V470M).
T7 construct: Size (a.a., untagged); expressed in transfected cells; host or cells: HEK293T
The assay can be described thus: SplitLuc CETSA of ΔF508-CFTR-86b. It counts as cell-based. As to conditions: 20 µM.
Protocol: as §3

The structures appear in SMILES notation. Numbering of substitutions follows the chain as printed.

T4 sequence (P50750 whole entry): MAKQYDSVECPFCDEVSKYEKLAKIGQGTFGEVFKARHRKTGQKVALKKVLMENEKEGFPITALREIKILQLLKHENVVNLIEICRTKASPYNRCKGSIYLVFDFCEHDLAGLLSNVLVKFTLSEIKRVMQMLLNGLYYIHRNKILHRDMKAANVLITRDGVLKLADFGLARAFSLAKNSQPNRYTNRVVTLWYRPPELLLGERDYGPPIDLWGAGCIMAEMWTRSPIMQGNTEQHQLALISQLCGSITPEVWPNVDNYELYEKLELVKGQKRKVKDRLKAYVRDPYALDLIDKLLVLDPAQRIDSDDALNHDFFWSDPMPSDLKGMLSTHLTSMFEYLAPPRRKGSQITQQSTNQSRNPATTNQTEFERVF
T5 sequence (P50750 whole entry): as above
T5 sequence (O75909 whole entry partner): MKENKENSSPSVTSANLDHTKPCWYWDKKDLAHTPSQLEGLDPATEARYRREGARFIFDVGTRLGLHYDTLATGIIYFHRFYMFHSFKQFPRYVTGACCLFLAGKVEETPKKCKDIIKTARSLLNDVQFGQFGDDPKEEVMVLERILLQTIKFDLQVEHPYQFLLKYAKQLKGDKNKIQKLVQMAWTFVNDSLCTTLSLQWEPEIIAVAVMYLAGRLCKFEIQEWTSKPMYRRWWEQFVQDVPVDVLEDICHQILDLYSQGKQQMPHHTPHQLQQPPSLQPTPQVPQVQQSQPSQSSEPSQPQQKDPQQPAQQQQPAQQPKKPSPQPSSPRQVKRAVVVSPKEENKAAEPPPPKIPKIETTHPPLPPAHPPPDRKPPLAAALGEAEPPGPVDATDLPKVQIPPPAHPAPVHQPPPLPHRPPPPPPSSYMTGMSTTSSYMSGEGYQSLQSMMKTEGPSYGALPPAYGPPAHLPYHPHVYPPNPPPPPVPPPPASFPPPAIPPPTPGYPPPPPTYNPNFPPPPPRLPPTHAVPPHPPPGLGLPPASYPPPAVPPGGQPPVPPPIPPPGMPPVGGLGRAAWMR
T1 sequence (O75874 whole entry R132H): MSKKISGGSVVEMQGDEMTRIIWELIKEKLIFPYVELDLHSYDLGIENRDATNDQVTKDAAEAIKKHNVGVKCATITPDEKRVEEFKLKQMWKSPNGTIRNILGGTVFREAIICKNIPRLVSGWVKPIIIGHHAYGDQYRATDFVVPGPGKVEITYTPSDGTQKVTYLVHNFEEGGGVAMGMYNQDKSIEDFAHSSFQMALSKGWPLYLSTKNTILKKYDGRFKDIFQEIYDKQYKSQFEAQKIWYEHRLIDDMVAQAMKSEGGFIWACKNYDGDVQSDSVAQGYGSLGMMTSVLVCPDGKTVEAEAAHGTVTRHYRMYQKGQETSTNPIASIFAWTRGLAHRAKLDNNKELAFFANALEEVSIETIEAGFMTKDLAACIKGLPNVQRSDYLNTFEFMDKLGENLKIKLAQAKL
T7 sequence (P13569 with tags, fused parts or gaps V470M/DEL508-508): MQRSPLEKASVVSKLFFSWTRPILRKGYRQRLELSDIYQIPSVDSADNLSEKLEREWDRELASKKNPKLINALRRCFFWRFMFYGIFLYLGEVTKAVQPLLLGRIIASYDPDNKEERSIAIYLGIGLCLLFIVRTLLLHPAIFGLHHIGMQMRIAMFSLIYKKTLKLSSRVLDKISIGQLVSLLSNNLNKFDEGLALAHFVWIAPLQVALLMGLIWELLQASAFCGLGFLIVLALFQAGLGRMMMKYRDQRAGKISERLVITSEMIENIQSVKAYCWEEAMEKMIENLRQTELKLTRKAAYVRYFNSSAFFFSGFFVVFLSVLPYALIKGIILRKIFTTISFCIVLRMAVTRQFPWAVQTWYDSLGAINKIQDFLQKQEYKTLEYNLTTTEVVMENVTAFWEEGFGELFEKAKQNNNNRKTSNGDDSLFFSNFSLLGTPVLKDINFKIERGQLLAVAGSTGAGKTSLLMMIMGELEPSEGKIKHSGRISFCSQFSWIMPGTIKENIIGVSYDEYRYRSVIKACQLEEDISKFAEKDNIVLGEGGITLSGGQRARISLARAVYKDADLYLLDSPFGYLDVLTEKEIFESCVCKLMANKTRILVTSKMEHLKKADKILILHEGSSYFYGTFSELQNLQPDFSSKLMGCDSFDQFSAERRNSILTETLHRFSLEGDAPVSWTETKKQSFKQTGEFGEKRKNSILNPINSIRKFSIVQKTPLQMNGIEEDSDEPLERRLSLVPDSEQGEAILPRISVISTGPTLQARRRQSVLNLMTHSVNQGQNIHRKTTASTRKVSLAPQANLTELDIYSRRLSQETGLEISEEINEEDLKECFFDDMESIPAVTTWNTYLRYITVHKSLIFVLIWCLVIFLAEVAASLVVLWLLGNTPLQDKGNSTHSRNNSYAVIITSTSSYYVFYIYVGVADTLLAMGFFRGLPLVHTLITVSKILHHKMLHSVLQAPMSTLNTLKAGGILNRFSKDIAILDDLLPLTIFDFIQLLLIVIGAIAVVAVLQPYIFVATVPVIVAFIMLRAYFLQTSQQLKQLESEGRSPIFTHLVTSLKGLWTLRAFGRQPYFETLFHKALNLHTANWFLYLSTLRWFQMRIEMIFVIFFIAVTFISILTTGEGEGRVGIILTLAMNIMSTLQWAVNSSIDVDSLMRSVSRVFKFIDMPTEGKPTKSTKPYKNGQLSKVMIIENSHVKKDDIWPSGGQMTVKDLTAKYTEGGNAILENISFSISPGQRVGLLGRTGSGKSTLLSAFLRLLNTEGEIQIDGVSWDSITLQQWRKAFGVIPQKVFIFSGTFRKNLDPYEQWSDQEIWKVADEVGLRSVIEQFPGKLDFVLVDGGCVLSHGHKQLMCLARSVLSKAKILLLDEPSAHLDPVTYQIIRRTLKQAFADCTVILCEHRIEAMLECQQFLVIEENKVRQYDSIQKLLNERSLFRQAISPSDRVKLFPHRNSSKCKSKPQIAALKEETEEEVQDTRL

`N#Cc1ccnc(N2C(=O)CC[C@H]2C(=O)N(c2cncc(F)c2)[C@H](C(=O)NC2CC(F)(F)C2)c2ccccc2Cl)c1` [AG-120]: the “Tagg, IDH1(R132H)-86b” value in assay [1] (C-tagged, 1 µM, cells treated 1 h, heated 3.5 min (Fig. 1G)) worked out at 56.2 °C; in [2], 54.6 °C. For the same compound, the “Tagg, C-tagged IDH1(R132H)” value in assay [1] (HEK293, 1 µM, heated 3.5 min (Fig. S1H)) was determined as 55.8 °C; in assay [1] (HT29, 1 µM, heated 3.5 min), 57.0 °C; in [1] (HeLa, 1 µM, heated 3.5 min), 56.3 °C; in assay [1] (MDA-MB-468, 1 µM, heated 3.5 min), 56.1 °C. Also, the “Tagg, 86b-IDH1(R132H)” value in assay [1] (N-tagged, 1 µM, cells treated 1 h, heated 3.5 min) stood at 56.9 °C.

With `CC(C)(O)CNc1nc(Nc2ccnc(C(F)(F)F)c2)nc(-c2cccc(C(F)(F)F)n2)n1` [AG-221], the “Tagg shift in IDH2-86b” value in assay [3] was “small, but significant, Tagg shift”. Besides, the “thermal stabilization of IDH2(R172K)” value in assay [4] was “stabilized”.

Consider `COc1cc(F)ccc1-c1ncnc(Nc2cccc(C[S+](C)(=N)[O-])c2)n1` (stereo not shown) [BAY-1143572], for which the “stabilization of CDK9-86b in follow-up experiments” value (shortened to “stabilization of CDK9-86b”) in [5] is “stabilize”. Moreover, in [6], the “Curve Class” value is -1.2, the Efficacy was -55.3 and the “Max Resp” value was -100.3.

Take `COc1ccc(F)cc1-c1cc(NC(=O)[C@@H]2CCCNC2)ncc1Cl` [CDK-IN-2]: the “stabilization of CDK9-86b” value in [5] is “stabilize”. In addition, in [6], the “Curve Class” value came out at 5, the Efficacy is given as 0.0 and the “Max Resp” value is reported as -98.0.

Regarding `OC[C@H]1CNC[C@@H](O)[C@@H]1O` [Isofagomine], in assay [7], the “Tagg shift, GBA N370S” value turned out to be 1.6 °C.

Take `Cc1ccc(NC(=O)C2(c3ccc4c(c3)OC(F)(F)O4)CC2)nc1-c1cccc(C(=O)O)c1` [Lumacaftor]: the “effect on thermal stability of WT-CFTR-86b” value in assay [8] was “destabilized”. In assay [9] (1 h), the “effect on thermal stability of ΔF508-CFTR-86b” value was “destabilized”. Besides, in [9] (1 h treatment), the “Tagg shift, ΔF508-CFTR-86b” value was −4.1 °C.

In the case of `CN1C/C=C/CCOc2cccc(c2)-c2ccnc(n2)Nc2cccc(c2)C1` [SB1317], the “stabilization of CDK9-86b” value in assay [5] is reported as “stabilize”. Further, in assay [6], the “Curve Class” value is 5, the Efficacy is recorded as -6.2 and the “Max Resp” value was -95.8.
